The structures appear in SMILES notation. ≈ marks a conversion by molar mass, not a printed value. Where two headings read alike, the source gives them in different places.

7 compounds from patent EP4768485A1 (Guangzhou Baiyunshan Pharmaceutical Holdings Co., Ltd. …, priority 2023, dated 2025) can be followed below.

One series deals with EcFabI (Escherichia coli, UniProt P0AEK4). Kind of series: FabI enzymatic activity by NADH/NADPH oxidation (fluorescence), EcFabI. It is filed as biochemical. The following applies: 9 nmol/L EcFabI; trans-dodecenoyl-CoA and NADH; pH 6.5.
The target in another series is SaFabI (Staphylococcus aureus, UniProt Q6GI75). The series is described as follows: FabI enzymatic activity by NADH/NADPH oxidation (fluorescence), SaFabI. The following applies: SaFabI IC50, 15 nmol/L SaFabI; trans-octenoyl-CoA and NADPH; pH 6.5.
The subject of series [1] is Escherichia coli. ATCC 25923. Kind of series: MIC, agar plate two-fold dilution. The settings on record: MHA, 37°C, 16-20 hours; for MIC: Escherichia coli, ATCC25923, read-out: Minimum Inhibitory Concentration MIC, Escherichia coli. ATCC 25923; for Minimum Inhibitory Concentration MIC: Escherichia coli. ATCC 25923. It is filed as cell-based. As to the method:
(§1) In this test example, the minimum inhibitory concentration (MIC) of the compound was determined.
(§2) The test drug concentration was set to be within a range of 0.008 µg/mL to 128 µg/mL in a two-fold serial dilution using an agar plate two-fold dilution method. The sample was dissolved in DMSO to prepare a 2 mL solution with a concentration of 1.92 mg/mL. The control group was prepared in sterile distilled water to obtain a concentration of 1.92 mg/mL. 1 mL of the prepared drug solution was added to a sterile culture dish, followed by addition of 14 mL of MHA culture medium at approximately 60°C. After thorough mixing, 1 mL of sterilized distilled water was added for two-fold dilution, resulting in a final drug concentration of 64 µg/mL, 32 µg/mL, 16 µg/mL, 8 µg/mL, 4 µg/mL, 2 µg/mL, 1 µg/mL, 0.5 µg/mL, 0.25 µg/mL, 0.125 µg/mL, 0.06 µg/mL, 0.03 µg/mL, 0.015 µg/mL, and 0.008 µg/mL (wherein the final concentrations of samples 2, 4, and 9 were diluted downward starting from 128 µg/mL), and set aside for later use. The prepared bacterial suspension was inoculated onto drug-containing MHA culture medium with a multi-point inoculator, with an inoculation volume of approximately 10^4 CFU per point. A sterile control group (1 mL DMSO + 14 mL MHA culture medium and 1 mL sterile distilled water + 14 mL MHA culture medium) was set up.

Series [2] has as its system Klebsiella pneumoniae ATCC BAA 2472. Kind of series: MIC, agar plate two-fold dilution. The class given is cell-based. The procedure: as §1, §2
Series [3] concerns Acinetobacter baumannii ARLG 1852. The series is described as follows: MIC, agar plate two-fold dilution. It is filed as cell-based. The procedure: as §1, §2
The test system of the next series is VRSA VRS 1. The series is described as follows: MIC, agar plate two-fold dilution. It is filed as cell-based, Staphylococcus aureus. The settings on record: MHA, 37°C, 16-20 hours; for MIC: Staphylococcus aureus. The procedure:
as §1, §2

For the next series, the system named is MRSA NRS 384. The series is described as follows: MIC, agar plate two-fold dilution. The following applies: MHA, 37°C, 16-20 hours; for MIC: Staphylococcus aureus. It is filed as cell-based, Staphylococcus aureus. The procedure:
as §1, §2

For another series, the system named is MSSA ATCC 29213. The series is described as follows: MIC, agar plate two-fold dilution. The settings on record: MHA, 37°C, 16-20 hours; for MIC: Staphylococcus aureus. It is filed as cell-based, Staphylococcus aureus. The procedure:
as §1, §2

In series [4] the test system is methicillin-resistant S. aureus (NRS384). The series is described as follows: Systemic infection model in mice, in vivo efficacy. Also noted: species or system Balb/c mice. The settings on record: single-dose oral administration, 0.3, 1.0, 3.0 mg/Kg; vs linezolid 3 mg/Kg and Debio-1450. The procedure: In this test experiment, the in vivo efficacy of the compound in mice was evaluated using a systemic infection model.
Ninety healthy adult male Balb/c mice (purchased from Beijing Vital River Laboratory Animal Technology Co., Ltd. , China) were selected, and divided into 10 groups, including one negative control group (9 mice, inoculated with bacteria and given vehicle), one positive control group (9 mice, vancomycin), one linezolid test group (9 mice), three test groups of high, medium, and low doses (3 ×9 mice) for compound 1a, three test groups of high, medium, and low doses (3 ×9 mice) for Debio-1450, and one test group for Debio-1452 (9 mice). All mice were acclimatized for 3-4 days before testing. The strain inoculated in this test example was methicillin-resistant S. aureus (NRS384), which was administered via tail vein injection at a dose of 1.0 × 10^8 CFU/mouse. The compound was administered 0.5 h post inoculation with the strain. The compound 1a and Debio-1452 were formulated in a vehicle containing 5% DMSO, 30% PEG400, and 65% H2O, while Debio-1450 was formulated in an isotonic glucose solution (freshly prepared) as the vehicle and was administered orally as a single dose. The specific dosing regimen is shown in Table 5: Table 5 Dosing Regimen for Systemic Infection Efficacy Model

Series [5] in a line: Pharmacokinetic study in rats. The class given is in vivo, Sprague-Dawley (SD) rats. The settings on record: oral gavage. The procedure: In this test experiment, a pharmacokinetic study of the compound in rats was conducted.
Twelve healthy adult female Sprague-Dawley (SD) rats (purchased from Beijing Vital River Laboratory Animal Technology Co., Ltd., China) with an average body weight of about 180-220 g were selected, and divided into four groups (n=3 per group). Two groups were administered via tail vein injection, while the other two groups were administered via oral gavage. Compound 1b was dissolved in a vehicle containing 5% DMSO, 30% PEG400, and 65% H2O, and Debio-1450 was dissolved in physiological saline, both of which were formed into a stable clear solution for later use. Animals were fasted for 12 hours before administration and resumed normal feeding 2 hours post administration. Then, blood samples were collected through the jugular vein at the following time points: 0.083 h, 0.25 h, 0.5 h, 1 h, 2 h, 4 h, 8 h, 24 h (tail vein injection) and 0.25 h, 0.5 h, 1 h, 2 h, 4 h, 8 h, 24 h (oral gavage administration), respectively, with a blood collection volume of about 200-400 µL. Whole blood collected at each time point was immediately transferred into an anticoagulant tube containing K2EDTA, then stored on ice in an insulated container. All samples were centrifuged within 15 minutes at 4600 r/min and 4°C for 5 minutes to separate plasma. The concentration of the compound in the plasma of each rat was determined using LC-MS/MS method, and the pharmacokinetic parameter was calculated from the drug concentration-time profile. Table 4 Oral Pharmacokinetic Parameters of Compound 1b/Debio-1450 In Rats

For another series, the system named is Escherichia coli. Kind of series: MIC, agar plate two-fold dilution. It is filed as cell-based. The following applies: ATCC25923; Escherichia coli. ATCC 25923; MHA, 37°C, 16-20 hours; read-out: Minimum Inhibitory Concentration MIC. As to the method: as §1, §2
[6] abbreviates: Klebsiella pneumoniae, BAA2472, read-out: Minimum Inhibitory Concentration MIC.
[7] abbreviates: Acinetobacter baumannii, ARLG1852, read-out: Minimum Inhibitory Concentration MIC.
Setting [8] is: VRSA, read-out: Minimum Inhibitory Concentration MIC, VRSA VRS 1.
[9] abbreviates: MRSA|NRS384, read-out: Minimum Inhibitory Concentration MIC, MRSA NRS 384.
[10] abbreviates: ATCC29213|MSSA, read-out: Minimum Inhibitory Concentration MIC, MSSA ATCC 29213.
[11] abbreviates: Klebsiella pneumoniae ATCC BAA 2472, MHA, 37°C, 16-20 hours.
Where [12] appears, read: Acinetobacter baumannii ARLG 1852, MHA, 37°C, 16-20 hours.
Setting [13] is: female, Sprague-Dawley, rat, 10 mg/Kg, plasma.

SaFabI, sequence (Q6GI75 whole entry): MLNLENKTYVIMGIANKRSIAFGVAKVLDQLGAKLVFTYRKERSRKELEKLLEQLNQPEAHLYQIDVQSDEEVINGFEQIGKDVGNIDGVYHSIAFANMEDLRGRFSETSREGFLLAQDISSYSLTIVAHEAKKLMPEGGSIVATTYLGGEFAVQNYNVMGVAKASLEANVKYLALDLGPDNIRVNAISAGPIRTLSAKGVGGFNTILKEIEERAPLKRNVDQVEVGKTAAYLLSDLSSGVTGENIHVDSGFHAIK
EcFabI, sequence (P0AEK4 whole entry): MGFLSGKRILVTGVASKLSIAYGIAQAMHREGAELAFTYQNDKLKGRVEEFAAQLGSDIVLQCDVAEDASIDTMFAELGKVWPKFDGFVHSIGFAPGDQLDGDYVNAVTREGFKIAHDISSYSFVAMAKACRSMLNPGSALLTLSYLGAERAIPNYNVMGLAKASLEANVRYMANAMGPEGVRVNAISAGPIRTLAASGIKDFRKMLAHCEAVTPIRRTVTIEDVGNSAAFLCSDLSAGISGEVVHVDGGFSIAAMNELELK
Description for EcFabI: (§3) In this test example, the enzymatic activity was evaluated by monitoring the oxidation of cofactor NADH/NADPH using a microplate reader.
(§4) The compound was dissolved in DMSO and added to a 384-well plate using ECHO665. Serial 3-fold or 4-fold dilutions were prepared to generate 10 dose points with two replicates per concentration, ensuring a final DMSO concentration 1% in each reaction well. Then, a FabI protein solution was added, and the protein was prepared in a buffer containing 100 mmol/L PBS, 0.05% Tween-20, and 150 mmol/L NaCl (pH 6.5), so that the final concentrations of SaFabI and EcFabI proteins were 15 nmol/L and 9 nmol/L, respectively. The prepared 5 µL of 15 nmol/L SaFabI and 9 nmol/L EcFabI were added to a 384-well assay plate, and centrifuged at 1000 rpm for 1 minute. Then, the plate was pre-incubated in a temperature-controlled shaker at 30 °C for 20 minutes. Moreover, substrates trans-octenoyl-CoA, NADPH, trans-dodecenoyl-CoA, and NADH were diluted in a buffer containing 100 mmol/L PBS, 0.05% Tween-20, and 15 0 mmol/L NaCl (pH 6.5) respectively, and their concentrations were adjusted to 300 µmol/L, 300 µmol/L, 600 µmol/L, and 150 µmol/L, respectively. For SaFabI, 5 µL of 300 µmol/L trans-octenoyl-CoA and 5 µL of 300 µmol/L NADPH were added to initiate the reaction. Immediately after initiation, the plate was placed into the microplate reader, and fluorescence signals (Ex 340 nm/Em 460 nm) were recorded every 0.5 minutes for at least 10 minutes. Similarly, 5 µL of 600 µmol/L trans-dodecenoyl-CoA and 5 µL of 150 µmol/L NADH were added to initiate reaction of EcFabI. Immediately after initiation, the plate was immediately placed into the microplate reader, and fluorescence signals (Ex 340 nm/Em 460 nm) were recorded every 0.5 minutes for at least 10 minutes. The reaction rate (fluorescence signal per minute) of each well was calculated from the fluorescence values. The inhibitory effect of the compound on the protein was then calculated based on the reaction rate, and the IC50 value for inhibition of enzyme activity by the compound was determined by fitting the data using GraphPad Prism 6 with log (inhibitor) vs. response variable slope model. The fitting equation is: Y=Bottom + (Top-Bottom)/(1+10^((LogIC50-X)*HillSlope)), wherein Y represents the known percentage of residual enzyme activity, and X represents the known Log concentration of the compound.
Description for SaFabI: as §3, §4

For orientation: IC50 means the midpoint of a concentration-inhibition curve. Lower therefore signals greater potency. With `Cc1c(CN(C)C(=O)/C=C/c2cnc3c(c2)C2CC2(N)C(=O)N3)oc2c(C3CC3)cccc12` (single isomer, unassigned) [Compound 2a], the half-inhibitory concentration (IC50) against EcFabI turned out to be 6 nM; on SaFabI, 10 nM. Besides, the MIC was 8 µg/mL (≈ 18.1 µM) in [1]; 32 µg/mL (≈ 72.3 µM) in series [2] (setting [6]); greater than 32 µg/mL in series [3] (setting [7]); 0.06 µg/mL (≈ 0.136 µM) in the series on VRSA VRS 1 (setting [8]); less than 0.008 µg/mL with MRSA NRS 384 (setting [9]); less than 0.008 µg/mL in the series on MSSA ATCC 29213 (setting [10]).
For the compound `Cc1c(CN(C)C(=O)/C=C/c2cnc3c(c2)C2CC2(N)C(=O)N3)oc2c(C3CC3)cccc12` (single isomer, unassigned) [Compound 2b], the IC50 against EcFabI worked out at 13 nM; at SaFabI, 12 nM. For the same compound, the “Minimum Inhibitory Concentration MIC” value in series [1] is listed as greater than 16 µg/mL; in series [2] (setting [11]), 32 µg/mL; in series [3] (setting [12]), greater than 32 µg/mL; in the series on VRSA VRS 1 (VRSA VRS 1), 0.06 µg/mL; with MRSA NRS 384 (MRSA NRS 384), less than 0.008 µg/mL; with MSSA ATCC 29213 (MSSA ATCC 29213), 0.016 µg/mL.
On to `Cc1c(CN(C)C(=O)/C=C/c2cnc3c(c2)C2CC2(N)C(=O)N3)oc2c(C)cccc12` (stereo not drawn) [Compound 1a], for which the IC50 on EcFabI was 4 nM; against SaFabI, 5 nM. In series [4], the “efficacy compared with the reference compounds” value is “markedly superior efficacy to linezolid and better efficacy than Debio-1450”. Also, the MIC in [1] was 4 µg/mL (≈ 9.6 µM); in series [2] (setting [6]), 16 µg/mL (≈ 38.4 µM); in series [3] (setting [7]), greater than 32 µg/mL; in the series on MRSA NRS 384 (setting [9]), less than 0.008 µg/mL; in the series on MSSA ATCC 29213 (setting [10]), less than 0.008 µg/mL. Besides, the “Minimum Inhibitory Concentration MIC” value in the series with VRSA VRS 1 (VRSA VRS 1) turned out to be 0.25 µg/mL.
Take `Cc1c(CN(C)C(=O)/C=C/c2cnc3c(c2)C2CC2(N)C(=O)N3)oc2ccccc12` (stereo not drawn) [Compound 3a]: the IC50 against EcFabI worked out at 7 nM; against SaFabI, 10 nM. Also, the MIC was 8 µg/mL (≈ 19.9 µM) in [1]; greater than 32 µg/mL in [2] (setting [6]); greater than 32 µg/mL in series [3] (setting [7]); 0.5 µg/mL (≈ 1.24 µM) with VRSA VRS 1 (setting [8]); 0.03 µg/mL (≈ 0.0745 µM) in the series with MRSA NRS 384 (setting [9]); 0.03 µg/mL (≈ 0.0745 µM) with MSSA ATCC 29213 (setting [10]).
Consider `Cc1c(CN(C)C(=O)/C=C/c2cnc3c(c2)C2CC2(N)C(=O)N3)oc2ccccc12` (stereo not drawn) [Compound 3b], for which the “Minimum Inhibitory Concentration MIC” value in series [1] is 8 µg/mL; in series [2] (setting [11]), greater than 32 µg/mL; in series [3] (setting [12]) it was greater than 32 µg/mL; in the series with VRSA VRS 1 (VRSA VRS 1) it was 0.25 µg/mL; in the series with MRSA NRS 384 (MRSA NRS 384), 0.016 µg/mL; in the series on MSSA ATCC 29213 (MSSA ATCC 29213), 0.016 µg/mL.
By Cmax is commonly meant the peak of the concentration-time curve. Usually Tmax stands for the time at which the peak concentration occurs. A word on the half-life: it is how long it takes for the measured level to halve. Higher therefore signals slow decline. Turning to `Cc1c(CN(C)C(=O)/C=C/c2cnc3c(c2)CCC(=O)N3COP(=O)(O)O)oc2ccccc12` [Debio-1450], in series [5] (setting [13]), the Cmax came to 2210 ng/mL, the Tmax was determined as 0.67 h and the half-life was 4.2 h. The compound also gave a F in [5] (10 mg/Kg vs tail vein injection) of 97%.
`Cc1c(CN(C)C(=O)/C=C/c2cnc3c(c2)CCC(=O)N3)oc2ccccc12` [Debio-1452, reference compound]: the IC50 was found to be 3 nM against EcFabI and 2 nM at SaFabI. The MIC is greater than 8 µg/mL in series [2] (BAA2472, Klebsiella pneumoniae ATCC BAA 2472, MHA, 37°C, 16-20 hours, read-out: Minimum Inhibitory Concentration MIC); 4 µg/mL (≈ 10.7 µM) in the series on Escherichia coli.; greater than 8 µg/mL in series [3] (ARLG1852, Acinetobacter baumannii ARLG 1852, MHA, 37°C, 16-20 hours, read-out: Minimum Inhibitory Concentration MIC); 0.12 µg/mL (≈ 0.32 µM) in the series with VRSA VRS 1 (VRSA VRS 1, read-out: Minimum Inhibitory Concentration MIC); less than 0.008 µg/mL with MRSA NRS 384 (MRSA NRS 384, read-out: Minimum Inhibitory Concentration MIC); less than 0.008 µg/mL with MSSA ATCC 29213 (MSSA ATCC 29213, read-out: Minimum Inhibitory Concentration MIC).
